# Measured values: patent US20250099580A1, “TREATMENT OF GASTRIC CANCER AND/OR GASTROESOPHAGEAL JUNCTION CANCER” (AstraZeneca AB, priority 2023, published 2025)
# Tests used:
# [1] = system: resectable gastric and gastroesophageal junction cancer (GC/GEJC); test: Phase III study, interim analysis: pathological response (pCR, pnCR, downstaging) by pathology review after neoadjuvant therapy; format: in vivo, human
# Text: As used herein, the terms “combined pathological complete response/near-complete pathological response” or “pnCR” refer to the proportion of patients who only have single cells or rare small groups of cancer cells present in the resected specimens as determined by pathology review. […] The Ryan Scoring system is based on the ratio of residual cancer cells to the amount of fibrosis, and ranges from 1 (complete or near-complete response) to 3 (poor or not response to neoadjuvant therapy). As used herein, the terms “pathological complete response” or “pathological CR” or “pCR” refer to the proportion of patients who have no residual viable tumor in the resected specimens and as determined by pathology review. As used herein, the terms “event-free survival” or “EFS” refer the time from the date of randomization until the date of one of the following events, whichever occurs first: (1) first documented progression that precludes surgery or requires non-protocol therapy; (2) first evidence of documented recurrence of disease post-surgery in patients who had margin-negative surgery (R0); (3) first evidence of documented progression of disease post-surgery in patients with margin-positive surgery (R1/R2); or (4) death due to any cause. EFS is determined according to RECIST 1.1 per BICR assessment and/or locally by pathology testing.
# (§1) A randomized, double-blind, placebo-controlled, multicenter, global Phase III study is conducted to assess the efficacy and safety of neoadjuvant-adjuvant durvalumab in combination with FLOT chemotherapy followed by adjuvant durvalumab monotherapy in patients with resectable GC/GEJC (i.e., radical-surgery eligible; >T2 N0-3 M0 or T0-4 N1-3 M0, per AJCC 8th edition). Patients were randomized in a 1:1 ratio to each of the following treatment arms (see FIGS. 1A and 1B): • Treatment Arm A: durvalumab 1500 mg on Day 1+FLOT on Days 1 and 15 of Q4W, both agents being adminstered for 4 cycles (2 cycles neoadjuvant+2 cycles adjuvant) followed by durvalumab 1500 mg on Day 1 Q4W for 10 additional cycles. • Treatment Arm B: placebo on Day 1+FLOT on Days 1 and 15 of Q4W, both agents being adminstered for 4 cycles (2 cycles neoadjuvant+2 cycles adjuvant) followed by placebo on Day 1 Q4W for 10 additional cycles.
# Patients were stratified according to geographic region (Asia versus non-Asia), clinical lymph node status (positive versus negative), and PD-L1 expression status (TIP/TAP≥1% versus TIP/TAP<1%). Patients provided a tumor tissue sample at screening (newly acquired or archived sample <3 months old) to determine PD-L1 status using the Tumor and/or Immune Cell Positivity (TIP) scoring method (defined as proportion of tumor area occupied by tumor cells with membrane and immune cells with cytoplasmic/membrane PD-L1 staining at any intensity) by the Ventana SP263 PD-L1 immunohistochemistry (IHC) assay for stratification in which: TIP/TAP≥1% PD-L1 is considered as high, and TIP/TAP<1% PD-L1 is considered low.
# Neoadjuvant therapy begins following completion of the screening period/randomization, and patients undergo resection surgery about 4 to about 8 weeks after the last dose of neoadjuvant therapy (surgery >8 weeks after the last dose of neoadjuvant therapy may be permitted). Adjuvant therapy begins about 4 weeks to about 12 weeks post-surgery (based on the patient's recovery period). In this Phase III study, the administration of durvalumab and a FLOT chemotherapy prior to surgery, followed by further administration of durvalumab and a FLOT chemotherapy after surgery, was investigated to determine if this therapy regimen can improve activity and therefore long-term clinical outcomes for patients with resectable GC and/or resectable GEJC.
# Eligible patients received 1500 mg durvalumab or placebo on Day 1 in combination with FLOT chemotherapy on Days 1 and 15 for 2 cycles Q4W as neoadjuvant therapy. […]
# [2] = Phase III study, interim analysis: adverse events (safety analysis set); format: in vivo
# Procedure: as §1
# An adverse event (AE) can therefore be any unfavorable and unintended sign (e.g., an abnormal laboratory finding), symptom (for example nausea, chest pain), or disease temporally associated with the use of a medicinal product, whether or not considered related to the medicinal product. The term AE is used to include both serious and non-serious AEs and can include a deterioration of a pre-existing medical occurrence. An AE may occur at any time, including run-in or washout periods, even if no study intervention has been administered.
# Definitions of serious adverse event: A serious adverse event is an AE occurring during any study phase (i.e., run-in, treatment, washout, follow-up), that fulfils one or more of the following criteria: results in death, is immediately life-threatening, requires in-patient hospitalization or prolongation of existing hospitalization, results in persistent or significant disability or incapacity, is a congenital abnormality or birth defect, or is an important medical event that may jeopardize the patient or may require medical treatment to prevent one of the outcomes listed above.
# Adverse events are coded using the most recent version of the Medical Dictionary for Regulatory Activities (MedDRA). AEs are presented for each treatment group by SOC and/or PT, covering number and percentage of subjects reporting at least one event and number of events where appropriate. […]
# Safety and tolerability are assessed in terms of AEs (including SAEs), deaths, laboratory data, vital signs, ECGs, and exposure. […]
# Interim analysis was conducted after all randomised patients underwent or were precluded from surgery. Superiority of pCR rate (α=0.1% [2-sided]) by central review was assessed. Surgical and safety outcomes were also assessed.
# [3] = system: resectable gastric and gastroesophageal junction cancer (GC/GEJC); test: Phase III study, interim analysis: surgery rate and R0 resection rate; format: in vivo, human
# Procedure: A randomized, double-blind, placebo-controlled, multicenter, global Phase III study is conducted to assess the efficacy and safety of neoadjuvant-adjuvant durvalumab in combination with FLOT chemotherapy followed by adjuvant durvalumab monotherapy in patients with resectable GC/GEJC (i.e., radical-surgery eligible; >T2 N0-3 M0 or T0-4 N1-3 M0, per AJCC 8th edition). Patients were randomized in a 1:1 ratio to each of the following treatment arms (see FIGS. 1A and 1B): • Treatment Arm A: durvalumab 1500 mg on Day 1+FLOT on Days 1 and 15 of Q4W, both agents being adminstered for 4 cycles (2 cycles neoadjuvant+2 cycles adjuvant) followed by durvalumab 1500 mg on Day 1 Q4W for 10 additional cycles. • Treatment Arm B: placebo on Day 1+FLOT on Days 1 and 15 of Q4W, both agents being adminstered for 4 cycles (2 cycles neoadjuvant+2 cycles adjuvant) followed by placebo on Day 1 Q4W for 10 additional cycles. Surgical eligibility was assessed after neoadjuvant treatment and within 28 days prior to surgery. Surgery performed was gastrectomy or gastroesophagectomy with at least D1 lymphadenectomy (D2 lymphadenectomy recommended), as determined by the attending surgeon based on the intraoperative findings. Surgery was no earlier than 4 weeks but within 8 weeks after the last dose of neoadjuvant therapy. Patients must have recovered from all acute, reversible toxic effects from FLOT chemotherapy (excluding alopecia) and durvalumab (or placebo) that could potentially adversely impact the surgical procedure. Radical gastrectomy or gastroesophagectomy was performed for patients who met the surgery eligibility criteria by a board certified surgeon no earlier than 28 days (4 weeks) but within 56 days (8 weeks) after the last dose of neoadjuvant therapy. (Surgery >8 weeks after the last dose of neoadjuvant therapy may be permitted in consultation with the Sponsor). The recommendations of ESMO and NCCN for the resectability of GC/GEJC was followed. The surgery was be performed by a board certified gastric surgeon, who should perform gastric surgery as a prominent part of his/her practice. Surgery rate is analyzed using the same methodology as described for the pCR rate. R0 resection (margin-negative resection) rate is analyzed using the same methodology as described for the pCR rate. Surgery status is determined by a patient receiving gastrectomy or gastroesophagectomy (yes/no). Surgery rate is defined as the proportion of patients who undergo gastrectomy or gastroesophagectomy. R0 resection is determined by pathology review. R0 resection rate is defined as the proportion of patients who have a confirmed complete resection (i.e., received margin-negative surgery [R]) as assessed by pathology review. Interim analysis was conducted after all randomised patients underwent or were precluded from surgery. Superiority of pCR rate (α=0.1% [2-sided]) by central review was assessed. Surgical and safety outcomes were also assessed.
# PD-L1 = PD-L1 (Homo sapiens, UniProt Q9NZQ7); details: in vitro; cited from earlier work
# Chain of PD-L1 (Q9NZQ7 19-290): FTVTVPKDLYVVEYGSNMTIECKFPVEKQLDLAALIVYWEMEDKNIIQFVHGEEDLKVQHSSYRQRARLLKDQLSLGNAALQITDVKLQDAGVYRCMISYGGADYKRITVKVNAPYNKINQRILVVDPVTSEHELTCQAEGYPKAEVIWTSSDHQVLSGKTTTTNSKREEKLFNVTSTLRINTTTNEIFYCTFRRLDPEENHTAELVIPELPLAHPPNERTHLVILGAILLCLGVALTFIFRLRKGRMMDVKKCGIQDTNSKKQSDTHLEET
# [4] = system: tumor growth in a xenograft model; details: T-cell dependent mechanism; cited from earlier work
# [5] = Central Review (BICR), n = 474 per arm
# [6] = D + FLOT versus P + FLOT, p < 0.00001
# [7] = Investigator Assessment, n = 474 per arm
# [8] = central assessment, n = 474 per arm
substance,measurement,setting,value
"D + FLOT: durvalumab 1500 mg Day 1 Q4W plus FLOT (5-FU + leucovorin + oxaliplatin + docetaxel) Days 1 and 15, neoadjuvant-adjuvant, then durvalumab monotherapy",Combined pCR/near-complete pathological response (pnCR) rate,[1],27%
same,increase in major response versus Placebo+FLOT chemotherapy alone,[1],12.4%
same,pCR Difference in response rate (%),"[1]; Central Review (BICR), Durva + FLOT − Placebo + FLOT",12.0%
same,pCR N Responses,[1]; [5],91
same,pCR Response rate %,[1]; [5],19.2%
same,pCR Odds ratio,"[1]; Central Review (BICR), stratified Cochran-Mantel-Haenszel test, 2-sided p <0.00001",3.08
same,"pCR, OR (95% CI)",[1]; [6],3.08 (2.03-4.67); p < 0.00001
same,"pCR/pnCR, OR (95% CI)",[1]; [6],2.19 (1.58-3.04); p < 0.00001
same,"Major pathological response, Difference in response rate (%)",[1]; Durva + FLOT − Placebo + FLOT,12.4%
same,pCR (BICR) by subgroups,"[1]; FIG. 2, odds ratio>1 favours durvalumab",consistent across evaluable subgroups
same,major pathological response (complete or near-complete response BICR) by subgroups,"[1]; FIG. 3, odds ratio>1 favours durvalumab",consistent across evaluable subgroups
same,pCR Difference in response rate (%),"[1]; Investigator Assessment, Durva + FLOT − Placebo + FLOT",13.3%
same,pCR N Responses,[1]; [7],103
same,pCR Response rate %,[1]; [7],21.7%
same,pCR Odds ratio,"[1]; Investigator Assessment, stratified Cochran-Mantel-Haenszel test, 2-sided p <0.00001",3.03
same,"Downstaging, pN0",[1]; by central review,47%
same,"Downstaging, pT0",[1]; by central review,21%
same,Major pathological response (complete or near-complete) N Responses,[1]; [8],127
same,Major pathological response rate %,[1]; [8],26.8%
same,pCR rate,"[1]; central review, interim analysis",19%
same,"pCR/pnCR, %",[1]; n = 474 per arm,26.8%
same,"pCR, %","[1]; n = 474 per arm, interim analysis",19.2%
same,"Major pathological response, Odds ratio","[1]; stratified Cochran-Mantel-Haenszel test, 2-sided p <0.00001",2.19
same,increase in pCR rate from addition of durvalumab to FLOT,[1]; versus Placebo,12%
same,pCR odds ratio [OR],"[1]; versus Placebo, p<0.00001",3.08
same,"AE Grade 3/4, (%)",[2]; safety analysis set,(68.6) %
same,"Grade 3/4 TRAE, (%)",[2]; safety analysis set,(57.9) %
same,"TRAE (treatment-related AE), (%)",[2]; safety analysis set,(95.2) %
same,"AE, (%)","[2]; safety analysis set: D + FLOT n = 475, P + FLOT n = 469",(98.9) %
same,Surgery rate,[3],87%
same,"Surgery performed, OR (95% CI)",[3]; D + FLOT versus P + FLOT,1.23 (0.85-1.76)
same,"R0 resection, OR (95% CI)","[3]; D + FLOT versus P + FLOT, in pts with surgery",1.00 (0.68-1.48)
same,R0 resection rate,[3]; in patients who underwent surgery,86%
same,"R0 resection, %","[3]; in pts with surgery: D + FLOT n = 430, P + FLOT n = 422",85.8%
same,"Surgery performed, %",[3]; n = 474 per arm,86.7%
Durvalumab: antibody that selectively binds PD-L1 and blocks the binding of PD-L1 to the PD-1 and CD80 receptors,effect on PD-L1-mediated suppression of human T-cell activation,PD-L1,relieve PD-L1-mediated suppression of human T-cell activation in vitro
same,tumor growth,[4],inhibits tumor growth
